{
  "source": "patent US20110086809A1",
  "about": "“Enteral Administration Of Arginine-Glutamine Dipeptide To Support Retinal, Intestinal, Or Nervous System Development” (priority 2009, published 2011)",
  "key": {"[1]": {"system": "intestinal injury induced by hyperoxia in a mouse model", "test": "Histological intestinal damage score in hyperoxia-exposed neonatal mice", "format": "in vivo", "conditions": "ileum histology, score 0 to 4+ (0=no damage, 4=severe damage); hyperoxic conditions plus dipeptide by gavage; hyperoxia alone 3.5; FIG. 2", "experimental": "(§1) In the neonatal mouse model of oxygen-induced retinopathy, 7-day old mice are placed with their nursing dams in a 75% oxygen atmosphere for 5 days. Mouse pups receive twice a day gavage feedings of arginine-glutamine dipeptide or control solution (20 μL) starting on postnatal day 12 (P12) and continuing through postnatal day 17 (P17). In one experiment, different dosages of arginine-glutamine dipeptide (1.0, 2.5 and 5 g/kg·day as a hydrochloride salt, Bachem, Babendorf, Switzerland) are tested. In a second experiment, arginine-glutamine dipeptide (5 g/kg day) is given and a normoxia group is used as a control.\n(§2) After the fifth day following return to normoxia (P17), the animals are euthanized by injection of a lethal dose of a combination of ketamine (70 mg/kg body weight) and xylazine (15 mg/kg body weight) followed by cervical dislocation.\nIntestinal injury is evaluated using histological techniques. A portion of intestine from the ileum is fixed in 10% (w·v) neutral buffered formalin for 24 hours for light microscopy. The intestine is paraffin embedded, cut into 4 μm sections, mounted on glass slides, and stained with hematoxylin and eosin according to standard procedures. Histological analyses are performed using a damage scoring system from 0 to 4+ (0=no damage, 4=severe damage with mucosal sloughing) to determine the severity of the intestinal injury."}, "Bcl-2": {"system": "Bcl-2", "test": "Brain Bcl-2 levels by immunoblotting in hyperoxia-exposed neonatal mice", "format": "in vivo", "conditions": "mouse brain, hyperoxic conditions, treated with dipeptide; FIG. 3", "experimental": "as §1, §2\nBcl-2 levels are determined using standard immunoblotting techniques. The brain is homogenized with a Polytron homogenizer, and the homogenates are stored in aliquots at −80° C. Gel electrophoresis is performed using the BioRad electrophoresis system (Carlsbad, Calif.). […] Protein bands are quantified by densitometry."}, "caspase-3": {"system": "caspase-3", "test": "Brain caspase-3 colorimetric activity assay in hyperoxia-exposed neonatal mice", "format": "in vivo, mouse", "conditions": "compared to hyperoxic mice; FIG. 4", "experimental": "as §1, §2\nCaspase-3 activity is determined using a Caspase-3 Colorimetric Activity Assay Kit (Chemicon International, Inc., Temecula, Calif.). The brain is homogenized with a Polytron homogenizer, and the homogenates are stored in aliquots at −80° C."}, "[2]": {"system": "neonatal mouse model of oxygen-induced retinopathy", "test": "Neonatal mouse model of oxygen-induced retinopathy, pre-retinal nuclei count", "format": "in vivo", "conditions": "FIG. 1", "experimental": "In the neonatal mouse model of oxygen-induced retinopathy, 7-day old mice are placed with their nursing dams in a 75% oxygen atmosphere for 5 days. Mouse pups receive twice a day gavage feedings of arginine-glutamine dipeptide or control solution (50 μL) starting on postnatal day 12 (P12) and continuing through postnatal day 17 (P17). Gavage feeds include a control (0.9% sodium chloride) and the test compounds and different doses of arginine-glutamine dipeptide (1.0, 2.5 and 5 g/kg·day). The daily dosage of the dipeptide is divided evenly between the two daily gavage feedings.\nAfter the fifth day following return to normoxia (P17), the animals are euthanized by injection of a lethal dose of a combination of ketamine (70 mg/kg body weight) and xylazine (15 mg/kg body weight) followed by cervical dislocation. The eyes are removed and fixed in 4% paraformaldehyde, embedded in paraffin, and sectioned. Pre-retinal nuclei are counted by masked observers. Efficacy of treatment is calculated as the percent average nuclei per section in the eyes of arginine-glutamine dipeptide treated animals versus control animals.\nSome of the eyes are taken for qualitative retinal flatmount analysis. For these mice, at the time of euthanasia, the mice are perfused with fluorescein isothiocyanate-labeled dextran to visualize the vasculature. […]"}},
  "data": [
    {"substance": "arginine-glutamine dipeptide", "values": [
      {"measurement": "average intestinal damage score", "setting": "[1]", "result": 1.67},
      {"measurement": "increased Bcl-2 expression in brain", "setting": "Bcl-2", "result": 33, "unit": "%"},
      {"measurement": "reduction in brain caspase-3 activity", "setting": "caspase-3", "result": 32, "unit": "%"},
      {"measurement": "dose/response of reduction of nuclei per section", "setting": "[2]; dosages between 1 g/kg·day and 5 g/kg·day, highest effectiveness at 5 g/kg·day", "result": "highest level of effectiveness was shown at 5 g/kg·day"},
      {"measurement": "average number of nuclei per section in the eyes", "setting": "[2]; neonatal mice exposed to hyperoxia (75% oxygen, 5 days), gavage twice a day P12-P17, 1, 2.5 and 5 g/kg·day, versus control (0.9% sodium chloride)", "result": "decreased at all levels of administration"}
    ]}
  ]
}
